Measurements as given in ChEMBL document CHEMBL5046313, “Synthesis and Optimization of Nitroxide-Based Inhibitors of Ferroptotic Cell Death in Cancer Cells and Macrophages” (ACS Med Chem Lett, 2022).

Legend:
[1] = Lipophilicity, log P of the compound; format: physicochemical; conditions: octanol/water
[2] = system: HT-1080; experiment: Anti-ferroptotic activity against Erastin-induced ferroptosis in human HT-1080 cells assessed as cell activity measured after 24 hrs by Cell Titer-Glo luminescent assay; format: functional, cell-based; conditions: HT-1080, 24 h
[3] = system: RAW264.7; experiment: Anti-ferroptotic activity against RSL-3 induced ferroptosis in mouse RAW264.7 cells assessed as cell activity measured after 24 hrs by Cell Titer-Glo luminescent assay; format: functional, cell-based; conditions: RAW264.7, 24 h
[4] = Metabolic stability in human liver S9 fraction assessed as half life measured upto 60 mins in presence of NADPH by LC-MS/MS analysis; format: ADME, subcellular
[5] = Metabolic stability in mouse liver S9 fraction assessed as half life measured upto 60 mins in presence of NADPH by LC-MS/MS analysis; format: ADME, subcellular

SMILES | logP [1] | EC50 [2] [nM] | half-life [4] [min] | half-life [5] [min] | EC50 [3] [nM]
CC1(C)CC(NC(=O)C(C)(C)/C=C/[C@H](NC(=O)OC(C)(C)C)c2ccccc2)CC(C)(C)N1 | 4.2 | 330 |  |  | 
CC1(C)CC(NC(=O)C(/C=C/[C@@H](NC(=O)OC(C)(C)C)c2ccc(F)cc2)(Cc2ccc(F)cc2)Cc2ccc(F)cc2)CC(C)(C)N1 | 7.9 | 280 |  |  | 
CC(C)C[C@@H](/C=C/C(Cc1ccccc1)(Cc1ccccc1)C(=O)NC1CC(C)(C)NC(C)(C)C1)NC(=O)OC(C)(C)C | 7.2 | 130 | 7 | 3 | 370
CC1(C)CC(NC(=O)C(/C=C/[C@@H](NC(=O)OC(C)(C)C)c2ccc(F)cc2)(Cc2ccc(F)cn2)Cc2ccc(F)cn2)CC(C)(C)N1 | 5.8 | > 2000 |  |  | 
CC(C)C[C@@H](/C=C/C1(C(=O)NC2CC(C)(C)NC(C)(C)C2)CCOCC1)NC(=O)OC(C)(C)C | 3.1 | 2200 |  |  | 
CC(C)C[C@H](/C=C/C(C)(C)C(=O)NC1CC(C)(C)NC(C)(C)C1)NC(=O)OC(C)(C)C | 4 | 250 | 7 | 3 | 1170
CC1(C)CC(NC(=O)C(/C=C/[C@H](NC(=O)OC(C)(C)C)c2ccoc2)(Cc2ccc(F)cc2)Cc2ccc(F)cc2)CC(C)(C)N1 | 6 | 240 |  |  | 
CC(C)C[C@H](/C=C/C(Cc1ccc(F)cc1)(Cc1ccc(F)cc1)C(=O)NC1CC(C)(C)NC(C)(C)C1)NC(=O)OC(C)(C)C | 7.6 | 180 |  |  | 
CC(C)C[C@@H](/C=C/C(Cc1ccc(F)cc1)(Cc1ccc(F)cc1)C(=O)NC1CC(C)(C)NC(C)(C)C1)NC(=O)OC(C)(C)C | 7.6 | 330 |  |  | 600
CC(C)C[C@@H](/C=C/C1(C(=O)NC2CC(C)(C)NC(C)(C)C2)CCCC1)NC(=O)OC(C)(C)C | 4.4 | 560 |  |  | 

More lines, in order of falling EC50 [2], values ahead:

logP [1] | EC50 [2] [nM] | half-life [4] [min] | half-life [5] [min] | SMILES | EC50 [3] [nM]
2.8 | 3580 | 5 | 9 | CC(C)C[C@@H](/C=C/CC(=O)NC1CC(C)(C)NC(C)(C)C1)NC(=O)OC(C)(C)C | 4090
2.9 | 1300 |  |  | CC1(C)CC(NC(=O)C/C=C/[C@H](NC(=O)OC(C)(C)C)c2ccccc2)CC(C)(C)N1 | 2760
3.5 | 800 |  |  | CC(C)C[C@@H](/C=C/C1(C(=O)NC2CC(C)(C)NC(C)(C)C2)CC1)NC(=O)OC(C)(C)C | 1130
6 | 430 |  |  | CC1(C)CC(NC(=O)C(/C=C/[C@@H](NC(=O)OC(C)(C)C)c2ccoc2)(Cc2ccc(F)cc2)Cc2ccc(F)cc2)CC(C)(C)N1 | 
7.9 | 340 | 7 | 3 | CC1(C)CC(NC(=O)C(/C=C/[C@H](NC(=O)OC(C)(C)C)c2ccc(F)cc2)(Cc2ccc(F)cc2)Cc2ccc(F)cc2)CC(C)(C)N1 | 250
4 | 240 |  |  | CC(C)C[C@@H](/C=C/C(C)(C)C(=O)NC1CC(C)(C)NC(C)(C)C1)NC(=O)OC(C)(C)C | 1150
2.8 | 70 |  |  | CCOC(=O)c1ccc(NC2CCCCC2)c(N)c1 | 40
